Holding throughout (assay): NCI-60 cell line screen, 48 h
The subject of assay [1] is LOX IMVI melanoma.
In assay [2] the test system is HL-60(TB) leukemia.
The subject of assay [3] is SNB-75 CNS.
Assay [4] has as its system A498 renal.
Assay [5] deals with SF-539 CNS.
The subject of assay [6] is NCI-H226 lung.
Assay [7] has as its system U251 CNS.
Assay [8] concerns HCC-2998 colon.
For assay [9], the system named is SK-MEL-28 melanoma.
For assay [10], the system named is SR leukemia.
Assay [11] deals with MCF7 breast.
Assay [12] deals with NCI-H23 lung.
Assay [13] deals with HT29 colon.
Assay [14] relates to SN12C renal.
Assay [15] deals with SK-MEL-2 melanoma.
Assay [16] concerns M14 melanoma.
Assay [17] deals with MDA-MB-231 breast.
Assay [18] deals with UACC-62 melanoma.
The test system of assay [19] is T-47D breast.
For assay [20], the system named is PC-3 prostate.

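Growth conditions: 96-well plates. Treatment: test compound, 48 hours, 5 concentrations. Analysis: linear interpolation between bracketing concentrations; unreached endpoints set to highest concentration. The concentration for full growth arrest is given as TGI.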

In the case of `Cl/C(=C\C=Nc1ccc(I)cc1)c1ccc2ccccc2c1`, the TGI in assay [1] was 30.9 µM; in assay [2], 44.4 µM; in [3], over 79.9 µM; in [4] it was over 90 µM; in assay [5], 44.4 µM; in [6] it was over 59.7 µM. Further, the TGI in [7] was 35 µM; in assay [8] it was 17.8 µM; in assay [9], 46.2 µM; in assay [10] it was 19 µM; in [11], over 87.5 µM; in assay [12], 31 µM. The TGI in assay [13] is over 100 µM; in assay [14], 40.6 µM; in assay [15], 56.1 µM; in assay [16], 31.5 µM; in assay [17], 36 µM; in assay [18], 34.3 µM. Moreover, the TGI in assay [19] is 61.9 µM; in [20], over 100 µM.

For the compound `[O-][n+]1onc2c1/C(=N/O)CCC2`, the TGI in assay [1], in assay [2], in [3], in assay [4], in assay [5] and in [6] was over 100 µM each time. In addition, the TGI in assay [8], in assay [9], in assay [10], in assay [11], in assay [12] and in assay [13] was over 100 µM each time. In addition, the TGI in assay [14], in assay [15], in [16], in [17], in assay [18] and in assay [19] was over 100 µM in each case. For the same compound, the TGI in assay [20] was over 100 µM.

Turning to `CC(=N\N=C\c1ccccn1)/C(C)=N/N=C(C)/C(C)=N/N=C/c1ccccn1`, the TGI in [1], in assay [2], in [3], in [4], in [5] and in assay [6] was over 100 µM in each case. For the same compound, the TGI in assay [7], in assay [8], in assay [9], in assay [10], in assay [11] and in assay [12] was over 100 µM each time. For the same compound, the TGI in [13], in [14], in assay [15], in assay [16], in [17] and in [19] was over 100 µM each time. In assay [20], this compound yielded a TGI of over 100 µM.

As for `O=C(c1cc2c(c3ccccc13)NCCN=C2C(F)(F)F)C(F)(F)F`, the TGI in assay [1] is 38.4 µM; in assay [2] it was 75.4 µM; in [3], over 100 µM; in assay [4], 40.3 µM; in assay [5], 54.9 µM; in [6], 47.1 µM. Moreover, the TGI in assay [7] was 36.9 µM; in assay [8], 33 µM; in assay [9] it was 47.8 µM; in assay [10], 21.3 µM; in assay [11] it was over 100 µM; in assay [12], over 100 µM. Moreover, the TGI is 33.1 µM in assay [13]; 44.1 µM in [15]; 79.6 µM in assay [16]; 51.4 µM in assay [17]; over 100 µM in [19]; 33.5 µM in assay [20].

Consider `O=C1C(Cl)C(c2cc3cc(Br)ccc3nc2Cl)N1c1ccc(Cl)cc1` (stereo unspecified), for which the TGI in assay [1] is 3.38 µM; in [2], 15.5 µM; in assay [3] it was 19.5 µM; in [4], over 25 µM; in [5] it was 9.41 µM; in [6], 12.3 µM. The TGI in [8] is 8.04 µM; in assay [9], over 25 µM; in assay [10], 7.46 µM; in assay [11] it was 7.47 µM; in [12], 17.2 µM; in [13], 19.6 µM. Also, the TGI worked out at 8.8 µM in [14]; 10.4 µM in [15]; 20.9 µM in assay [16]; 7.35 µM in assay [17]; 10.2 µM in assay [18]; 23.8 µM in assay [19]. In addition, the TGI in [20] is over 25 µM.

Consider `Cc1ccc2[nH]c3c(c2c1)C1CCC(C(C)(C)C)CC1C1C(=O)N(c2ccc4c(c2)OCO4)C(=O)C31` (stereo unspecified), for which the TGI in assay [1] was found to be 6.25 µM; in [2], 11.9 µM; in [4] it was 3.48 µM; in [5], 2.74 µM; in assay [6] it was 8.58 µM; in assay [7] it was 4.77 µM. The TGI was 5.84 µM in [8]; 17.9 µM in [9]; 3.73 µM in assay [10]; 12.4 µM in [11]; 18.3 µM in assay [12]; 16.2 µM in assay [13]. The TGI worked out at 4.96 µM in assay [14]; 19.3 µM in assay [15]; 17.2 µM in [16]; 5.11 µM in [17]; 22.9 µM in assay [18]; 3.94 µM in assay [19]. In [20], this compound yielded a TGI of 9.17 µM.

As to `Nc1ncnc2c1ncn2[C@H]1CC[C@@H](NO)C1`, the TGI in [1], in assay [3], in [4], in assay [5], in assay [6] and in [7] was over 100 µM throughout. Besides, the TGI in assay [8], in assay [9], in [10], in assay [11], in assay [12] and in assay [14] was over 100 µM in each case. Also, the TGI in [15], in assay [16], in assay [17], in [18], in assay [19] and in assay [20] was over 100 µM each time.

Regarding `O=C(O)[C@@H]1NC[C@H]2C(Br)=NO[C@H]21`, the TGI in assay [1], in assay [2], in assay [3], in assay [4], in assay [6] and in assay [7] was over 100 µM each time. In addition, the TGI in assay [8], in [9], in assay [10], in assay [11], in assay [12] and in assay [13] was over 100 µM each time. Moreover, the TGI in [14], in assay [15], in [16], in assay [17], in assay [18] and in assay [19] was over 100 µM throughout. This compound also had a TGI in assay [20] of over 100 µM.

(Values after PubChem BioAssay (NCI).)
